The source made the active and inactive calls. No cut-off for these calls is given here.
Columns and labels:
[1] = Displacement of [125I]IMPY from amyloid beta (1 to 42) after 3 hrs by gamma counting
[2] = test system: Blood; experiment: Biodistribution in ddY mouse blood at 185 to 370 kBq, iv after 2 mins by gamma counting; format: ADME, organism-based; details: in vivo
[3] = test system: Brain; experiment: Biodistribution in ddY mouse brain at 185 to 370 kBq, iv after 2 mins by gamma counting; format: ADME, organism-based; details: in vivo
[4] = test system: Bone; experiment: Biodistribution in ddY mouse bone at 185 to 370 kBq, iv after 2 mins by gamma counting; format: ADME, organism-based, Bone element; details: in vivo
[5] = test system: Liver; experiment: Biodistribution in ddY mouse liver at 185 to 370 kBq, iv after 2 mins by gamma counting; format: ADME, organism-based; details: in vivo
[6] = test system: Kidney; experiment: Biodistribution in ddY mouse kidney at 185 to 370 kBq, iv after 2 mins by gamma counting; format: ADME, organism-based; details: in vivo
[7] = test system: Intestine; experiment: Biodistribution in ddY mouse intestine at 185 to 370 kBq, iv after 2 mins by gamma counting; format: ADME, organism-based; details: in vivo
[8] = test system: Spleen; experiment: Biodistribution in ddY mouse spleen at 185 to 370 kBq, iv after 2 mins by gamma counting; format: ADME, organism-based; details: in vivo
[9] = test system: Lung; experiment: Biodistribution in ddY mouse lung at 185 to 370 kBq, iv after 2 mins by gamma counting; format: ADME, organism-based; details: in vivo
[10] = test system: Pancreas; experiment: Biodistribution in ddY mouse pancreas at 185 to 370 kBq, iv after 2 mins by gamma counting; format: ADME, organism-based; details: in vivo
[11] = test system: Heart; experiment: Biodistribution in ddY mouse […] at 185 to 370 kBq, iv after 2 mins by gamma counting; format: ADME, organism-based; details: in vivo
[12] = test system: Stomach; experiment: Biodistribution in ddY mouse stomach assessed per organ at 185 to 370 kBq, iv after 2 mins by gamma counting; format: ADME, organism-based; details: in vivo
[13] = test system: Blood; experiment: Biodistribution in ddY mouse blood at 185 to 370 kBq, iv after 10 mins by gamma counting; format: ADME, organism-based; details: in vivo
[14] = test system: Brain; experiment: Biodistribution in ddY mouse brain at 185 to 370 kBq, iv after 10 mins by gamma counting; format: ADME, organism-based; details: in vivo
[15] = test system: Bone; experiment: Biodistribution in ddY mouse bone at 185 to 370 kBq, iv after 10 mins by gamma counting; format: ADME, organism-based, Bone element; details: in vivo
[16] = test system: Liver; experiment: Biodistribution in ddY mouse liver at 185 to 370 kBq, iv after 10 mins by gamma counting; format: ADME, organism-based; details: in vivo
[17] = test system: Kidney; experiment: Biodistribution in ddY mouse kidney at 185 to 370 kBq, iv after 10 mins by gamma counting; format: ADME, organism-based; details: in vivo
[18] = test system: Intestine; experiment: Biodistribution in ddY mouse intestine at 185 to 370 kBq, iv after 10 mins by gamma counting; format: ADME, organism-based; details: in vivo
[19] = test system: Spleen; experiment: Biodistribution in ddY mouse spleen at 185 to 370 kBq, iv after 10 mins by gamma counting; format: ADME, organism-based; details: in vivo
[20] = test system: Lung; experiment: Biodistribution in ddY mouse lung at 185 to 370 kBq, iv after 10 mins by gamma counting; format: ADME, organism-based; details: in vivo
[21] = test system: Pancreas; experiment: Biodistribution in ddY mouse pancreas at 185 to 370 kBq, iv after 10 mins by gamma counting; format: ADME, organism-based; details: in vivo
[22] = test system: Heart; experiment: Biodistribution in ddY mouse […] at 185 to 370 kBq, iv after 10 mins by gamma counting; format: ADME, organism-based; details: in vivo
[23] = test system: Stomach; experiment: Biodistribution in ddY mouse stomach assessed per organ at 185 to 370 kBq, iv after 10 mins by gamma counting; format: ADME, organism-based; details: in vivo
[24] = test system: Blood; experiment: Biodistribution in ddY mouse blood at 185 to 370 kBq, iv after 30 mins by gamma counting; format: ADME, organism-based; details: in vivo, 0.5 h
[25] = test system: Brain; experiment: Biodistribution in ddY mouse brain at 185 to 370 kBq, iv after 30 mins by gamma counting; format: ADME, organism-based; details: in vivo, 0.5 h
[26] = test system: Bone; experiment: Biodistribution in ddY mouse bone at 185 to 370 kBq, iv after 30 mins by gamma counting; format: ADME, organism-based, Bone element; details: in vivo, 0.5 h
[27] = test system: Liver; experiment: Biodistribution in ddY mouse liver at 185 to 370 kBq, iv after 30 mins by gamma counting; format: ADME, organism-based; details: in vivo, 0.5 h
[28] = test system: Kidney; experiment: Biodistribution in ddY mouse kidney at 185 to 370 kBq, iv after 30 mins by gamma counting; format: ADME, organism-based; details: in vivo, 0.5 h
[29] = test system: Intestine; experiment: Biodistribution in ddY mouse intestine at 185 to 370 kBq, iv after 30 mins by gamma counting; format: ADME, organism-based; details: in vivo, 0.5 h
[30] = test system: Spleen; experiment: Biodistribution in ddY mouse spleen at 185 to 370 kBq, iv after 30 mins by gamma counting; format: ADME, organism-based; details: in vivo, 0.5 h
[31] = test system: Lung; experiment: Biodistribution in ddY mouse lung at 185 to 370 kBq, iv after 30 mins by gamma counting; format: ADME, organism-based; details: in vivo, 0.5 h
[32] = test system: Pancreas; experiment: Biodistribution in ddY mouse pancreas at 185 to 370 kBq, iv after 30 mins by gamma counting; format: ADME, organism-based; details: in vivo, 0.5 h
[33] = test system: Heart; experiment: Biodistribution in ddY mouse […] at 185 to 370 kBq, iv after 30 mins by gamma counting; format: ADME, organism-based; details: in vivo, 0.5 h
[34] = test system: Stomach; experiment: Biodistribution in ddY mouse stomach assessed per organ at 185 to 370 kBq, iv after 30 mins by gamma counting; format: ADME, organism-based; details: in vivo, 0.5 h
[35] = test system: Blood; experiment: Biodistribution in ddY mouse blood at 185 to 370 kBq, iv after 60 mins by gamma counting; format: ADME, organism-based; details: in vivo, 1 h
[36] = test system: Brain; experiment: Biodistribution in ddY mouse brain at 185 to 370 kBq, iv after 60 mins by gamma counting; format: ADME, organism-based; details: in vivo, 1 h
[37] = test system: Bone; experiment: Biodistribution in ddY mouse bone at 185 to 370 kBq, iv after 60 mins by gamma counting; format: ADME, organism-based, Bone element; details: in vivo, 1 h
[38] = test system: Liver; experiment: Biodistribution in ddY mouse liver at 185 to 370 kBq, iv after 60 mins by gamma counting; format: ADME, organism-based; details: in vivo, 1 h
[39] = test system: Kidney; experiment: Biodistribution in ddY mouse kidney at 185 to 370 kBq, iv after 60 mins by gamma counting; format: ADME, organism-based; details: in vivo, 1 h
[40] = test system: Intestine; experiment: Biodistribution in ddY mouse intestine at 185 to 370 kBq, iv after 60 mins by gamma counting; format: ADME, organism-based; details: in vivo, 1 h
[41] = test system: Spleen; experiment: Biodistribution in ddY mouse spleen at 185 to 370 kBq, iv after 60 mins by gamma counting; format: ADME, organism-based; details: in vivo, 1 h
[42] = test system: Lung; experiment: Biodistribution in ddY mouse lung at 185 to 370 kBq, iv after 60 mins by gamma counting; format: ADME, organism-based; details: in vivo, 1 h
[43] = test system: Pancreas; experiment: Biodistribution in ddY mouse pancreas at 185 to 370 kBq, iv after 60 mins by gamma counting; format: ADME, organism-based; details: in vivo, 1 h
[44] = test system: Heart; experiment: Biodistribution in ddY mouse […] at 185 to 370 kBq, iv after 60 mins by gamma counting; format: ADME, organism-based; details: in vivo, 1 h
[45] = test system: Stomach; experiment: Biodistribution in ddY mouse stomach assessed per organ at 185 to 370 kBq, iv after 60 mins by gamma counting; format: ADME, organism-based; details: in vivo, 1 h
[46] = test system: Brain; experiment: Ratio of drug level in brain after 2 mins to brain after 60 mins in ddY mouse […] at 185 to 370 kBq, iv; format: ADME, organism-based; details: in vivo
[47] = test system: Brain; experiment: Biodistribution in Tg2576 transgenic mouse brain at 11.1 MBq, iv after 30 mins by autoradiography; format: ADME, organism-based; details: in vivo, 0.5 h
[48] = test system: Brain; experiment: Biodistribution in wild type mouse brain at 11.1 MBq, iv after 30 mins by autoradiography; format: ADME, organism-based; details: in vivo, 0.5 h
[49] = target: Amyloid-beta precursor protein (Homo sapiens) (UniProt P05067); experiment: Binding affinity to beta amyloid plaques in normal human brain at 444 kBq/50 uL after 1 hr by autoradiography; details: tested as the 18F-labelled form
Chain of Amyloid-beta precursor protein (Homo sapiens) (P05067 whole entry): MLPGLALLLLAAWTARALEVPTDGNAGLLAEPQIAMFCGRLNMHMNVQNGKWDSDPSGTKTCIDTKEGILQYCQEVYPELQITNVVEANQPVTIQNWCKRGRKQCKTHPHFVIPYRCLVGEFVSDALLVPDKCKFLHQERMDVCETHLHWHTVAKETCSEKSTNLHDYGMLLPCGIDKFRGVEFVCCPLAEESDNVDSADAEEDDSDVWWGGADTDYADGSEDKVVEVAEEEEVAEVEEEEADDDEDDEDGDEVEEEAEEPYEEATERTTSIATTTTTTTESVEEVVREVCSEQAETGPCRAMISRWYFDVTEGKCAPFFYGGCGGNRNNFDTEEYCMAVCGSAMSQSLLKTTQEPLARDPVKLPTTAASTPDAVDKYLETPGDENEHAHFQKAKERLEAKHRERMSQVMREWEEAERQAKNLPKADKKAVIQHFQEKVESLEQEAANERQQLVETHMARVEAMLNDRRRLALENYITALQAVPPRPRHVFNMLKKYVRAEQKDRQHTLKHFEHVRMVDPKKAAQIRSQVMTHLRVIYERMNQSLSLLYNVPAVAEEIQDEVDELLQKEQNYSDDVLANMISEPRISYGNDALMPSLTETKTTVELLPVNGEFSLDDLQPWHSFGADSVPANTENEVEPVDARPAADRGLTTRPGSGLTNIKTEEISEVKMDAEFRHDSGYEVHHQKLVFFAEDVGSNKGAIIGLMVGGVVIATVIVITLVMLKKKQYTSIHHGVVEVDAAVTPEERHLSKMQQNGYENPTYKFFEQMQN

## CNc1ccc(-c2nc3ccc(O)cc3s2)cc1 [PITTSBURGH COMPOUND B UNLABELLED]
[1]
  Ki: 9 nM

## CNc1ccc(-c2cc3cc(OCCOCCOCC[18F])ccc3o2)cn1
[2]
  Drug uptake: 4.96 % ID/g
[3]
  Drug uptake: 7.38 % ID/g
[4]
  Drug uptake: 2.65 % ID/g
[5]
  Drug uptake: 16.8 % ID/g
[6]
  Drug uptake: 11.9 % ID/g
[7]
  Drug uptake: 4.24 % ID/g
[8]
  Drug uptake: 2.91 % ID/g
[9]
  Drug uptake: 5.68 % ID/g
[10]
  Drug uptake: 5.14 % ID/g
[11]
  Drug uptake: 5.19 % ID/g
[12]
  Drug uptake: 3.73 %ID
[13]
  Drug uptake: 3.02 % ID/g
[14]
  Drug uptake: 4.86 % ID/g
[15]
  Drug uptake: 1.63 % ID/g
[16]
  Drug uptake: 17.5 % ID/g
[17]
  Drug uptake: 6.22 % ID/g
[18]
  Drug uptake: 8.39 % ID/g
[19]
  Drug uptake: 2.15 % ID/g
[20]
  Drug uptake: 3.12 % ID/g
[21]
  Drug uptake: 2.68 % ID/g
[22]
  Drug uptake: 2.51 % ID/g
[23]
  Drug uptake: 7.55 %ID
[24]
  Drug uptake: 2.66 % ID/g
[25]
  Drug uptake: 4.03 % ID/g
[26]
  Drug uptake: 1.79 % ID/g
[27]
  Drug uptake: 19.2 % ID/g
[28]
  Drug uptake: 7.83 % ID/g
[29]
  Drug uptake: 24.1 % ID/g
[30]
  Drug uptake: 3.14 % ID/g
[31]
  Drug uptake: 4.34 % ID/g
[32]
  Drug uptake: 4.91 % ID/g
[33]
  Drug uptake: 3.59 % ID/g
[34]
  Drug uptake: 18.8 %ID
[35]
  Drug uptake: 2.42 % ID/g
[36]
  Drug uptake: 3.15 % ID/g
[37]
  Drug uptake: 1.72 % ID/g
[38]
  Drug uptake: 8.71 % ID/g
[39]
  Drug uptake: 3.7 % ID/g
[40]
  Drug uptake: 30.9 % ID/g
[41]
  Drug uptake: 2.24 % ID/g
[42]
  Drug uptake: 2.88 % ID/g
[43]
  Drug uptake: 2.55 % ID/g
[44]
  Drug uptake: 2.6 % ID/g
[45]
  Drug uptake: 22.5 %ID
[46]
  Ratio: 2.34
[47]
  Drug uptake: Active
[48]
  Drug uptake: Not Active

## CNc1ccc(-c2cc3cc(OCCOCCOCC[18F])ccc3o2)cc1
[2]
  Drug uptake: 4.1 % ID/g
[3]
  Drug uptake: 8.18 % ID/g
[4]
  Drug uptake: 1.57 % ID/g
[13]
  Drug uptake: 4.17 % ID/g
[14]
  Drug uptake: 6.43 % ID/g
[15]
  Drug uptake: 1.98 % ID/g
[24]
  Drug uptake: 5.33 % ID/g
[25]
  Drug uptake: 4.26 % ID/g
[26]
  Drug uptake: 2.07 % ID/g
[35]
  Drug uptake: 7.33 % ID/g
[36]
  Drug uptake: 3.87 % ID/g
[37]
  Drug uptake: 3.3 % ID/g
[46]
  Ratio: 2.11
[47]
  Drug uptake: Active
[48]
  Drug uptake: Not Active

## CNc1ccc(-c2cc3cc(OCCOCCOCCF)ccc3o2)cc1
[1]
  Ki: 3.85 nM
[49]
  Activity: inactive

## CN(C)c1ccc(-c2cc3cc(OCCOCCOCCF)ccc3o2)cc1
[1]
  Ki: 2 nM
